# Reference: US11357779B2 (G1 Therapeutics, Inc., priority 2018, dated 2022)
# Read-outs that look alike come from different tables or passages of the source.
# How the values were obtained:
# ME-016 tumor = assay: Murine BRAFmut melanoma PDX model, tumor growth and survival; type: in vivo; settings: ME-016 tumor-containing mice; Compound I 100 mg/kg, dabrafenib 25 mg/kg, trametinib 1 mg/kg
# Protocol: Mice containing a ME-016 tumor were treated with vehicle, Compound I (100 mg/kg), dabrafenib (25 mg/kg), trametinib (1 mg/kg), Compound I+dabrafenib, Compound I+trametinib, dabrafenib+trametinib, and Compound I+dabrafenib+trametinib.
# [1] = cited from earlier work; for AUC0-24,ss: geometric mean; for AUC0-10,ss: arithmetic mean
# [2] = abemaciclib, cited from earlier work
# [3] = cited from earlier work
# [4] = Steady-state AUC0-24,ss, (AUC0-24,ss)/dose, half-life and time to steady state: Compound I versus palbociclib, ribociclib, abemaciclib; type: in vivo, human; settings: for (AUC0-24,ss)/Dose (mg): in h·ng/mL/mg; for Time to Steady State / Time to Steady-State: FDA labeled dose, five half-lives; for AUC(0-t): human, in vivo, read-out: Extrapolated AUC0-24,ss
# Text: The time to reach steady state was defined as five half-lives (97% steady state achieved). […] The AUC data are presented as the arithmetic mean. […] The AUC data are presented as the geometric mean. The steady-state AUC0-24 for various BID doses of abemaciclib provided in Table 89 was obtained from the above cited prior published studies. The AUC data are presented as the geometric mean.
# [5] = trial not given; cited from earlier work
# [6] = Grade 3/4 neutropenia and leukopenia; cited from earlier work
# [7] = MONALEESA-2; cited from earlier work
structure (smiles),measurement,setting,value
CC(C)(C)c1nc(-c2cccc(NS(=O)(=O)c3c(F)cccc3F)c2F)c(-c2ccnc(N)n2)s1 [Dabrefinib],Median OS,ME-016 tumor,32 days
CC(=O)Nc1cccc(-n2c(=O)n(C3CC3)c(=O)c3c(Nc4ccc(I)cc4F)n(C)c(=O)c(C)c32)c1 [Trametinib],Median OS,ME-016 tumor,42.5 days
"CCN1CCN(Cc2ccc(Nc3ncc(F)c(-c4cc(F)c5nc(C)n(C(C)C)c5c4)n3)nc2)CC1 [abemaciclib, 2-pyrimidinamine, N-[5-[(4-ethyl-1-piperazinyl)methyl]-2-pyridinyl]-5-fluoro-4-[4-fluoro-2-methyl-1-(1-methylethyl)-1H-benzimidazol-6-yl]-]","AUC0-24,ss",[1]; 75 mg BID,1300 ng·h/mL
same,"AUC0-24,ss",[1]; 100 mg BID,3910 ng·h/mL
same,"AUC0-24,ss",[1]; 150 mg BID,4280 ng·h/mL
same,"AUC0-24,ss",[1]; 200 mg BID,5520 ng·h/mL
same,estimated geometric mean accumulation ratio,[2]; based on AUC,3.2 (59% CV)
same,estimated geometric mean accumulation ratio,[2]; based on Cmax,2.3 (50% CV)
same,T1/2,[2]; human,roughly 18.3 hours
same,"Diarrhea, patients","[3]; MONARCH 1, abemaciclib alone",90%
same,"Grade 3 diarrhea, patients","[3]; MONARCH 1, abemaciclib alone",20%
same,"Neutropenia, patients","[3]; MONARCH 1, abemaciclib alone",37%
same,"Grade >3 decrease in neutrophil count (based on laboratory findings), patients",[3]; MONARCH 1,27%
same,"(AUC0-24,ss)/Dose (mg)",[4]; 75 mg BID,17.33
same,"(AUC0-24,ss)/Dose (mg)",[4]; 100 mg BID,39.10
same,"(AUC0-24,ss)/Dose (mg)",[4]; 150 mg BID,28.53
same,"(AUC0-24,ss)/Dose (mg)",[4]; 200 mg BID,27.60
same,patients with diarrhea required a dose reduction,[5],22%
same,patients with diarrhea required dose omission,[5],22%
"CC(=O)c1c(C)c2cnc(Nc3ccc(N4CCNCC4)cn3)nc2n(C2CCCC2)c1=O [palbociclib, 6-acetyl-8-cyclopentyl-5-methyl-2-(5-piperazin-1-yl-pyridin-2-ylammino)-8H-pyrido-[2,3-d]-pyrimidin-7-one]","AUC0-10,ss",[1]; 25 mg QD,119 ng·h/mL
same,"AUC0-10,ss",[1]; 50 mg QD,274 ng·h/mL
same,"AUC0-10,ss",[1]; 75 mg QD,492 ng·h/mL
same,"AUC0-10,ss",[1]; 100 mg QD,592 ng·h/mL
same,Mean Half-Life,"[1]; 125 mg QD, FDA labeled dose",26.5 h
same,"AUC0-10,ss",[1]; 125 mg QD,724 ng·h/mL
same,"AUC0-10,ss",[1]; 150 mg QD,1084 ng·h/mL
same,patients requiring a dose interruption,[6],71%
same,patients requiring a dose reduction,[6],35%
same,"Extrapolated AUC0-24,ss","[4]; 100 mg QD, AUC0-24=(AUC0-10)*2.49655",1478 ng·h/mL
same,Time to Steady State,[4]; 125 mg QD,5.5 days
same,Time to Steady-State,[4]; 125 mg QD,132.5 h
same,AUC(0-t),"[4]; 25 mg QD, AUC0-24=(AUC0-10)*2.49655",297 ng·h/mL
same,AUC(0-t),"[4]; 50 mg QD, AUC0-24=(AUC0-10)*2.49655",684 ng·h/mL
same,AUC(0-t),"[4]; 75 mg QD, AUC0-24=(AUC0-10)*2.49655",1230 ng·h/mL
same,AUC(0-t),"[4]; 125 mg QD, AUC0-24=(AUC0-10)*2.49655",1810 ng·h/mL
same,AUC(0-t),"[4]; 150 mg QD, AUC0-24=(AUC0-10)*2.49655",2710 ng·h/mL
"CN(C)C(=O)c1cc2cnc(Nc3ccc(N4CCNCC4)cn3)nc2n1C1CCCC1 [ribociclib, 7-cyclopentyl-N,N-dimethyl-2-((5-(piperazin-1-yl)pyridin-2-yl)amino)-7H-pyrrolo[2,3-d]pyrimidine-6-carboxamide]","neutropenia, most frequently reported adverse reaction",[7],75%
same,Time to Steady State,[4]; 600 mg QD,6.8 days
same,Time to Steady-State,[4]; 600 mg QD,162.5 h
